# How the values were obtained:
# L donovani = experiment: Leishmania mouse/hamster models, in-vivo; details: Ld. Further: key: - no/poor activity,; + fair/moderate activity,; ++ good/excellent activity.
# Description: (§1) In-vitro and in-vivo models were used to test activities of a selection of many compounds. Those activities are summarized in Tables 1-3, showing variation between systems and species. Activities measured in the MP mo and HM mo models have shown the best correlation with results obtained in hamster and mouse models.
# L major/L mexicana = experiment: Leishmania mouse/hamster models, in-vivo; details: Lm. Further: key: - no/poor activity,; + fair/moderate activity,; ++ good/excellent activity.
# Description: as §1
# T. cruzi = T. cruzi mouse model, in-vivo
# Description: as §1
# [1] = system: T.b. brucei, T.b. gambiense and T.b. rhodesiense; experiment: African trypanosomiasis mouse model, in-vivo
# Experimental: Primary screening for new trypanocides has made extensive use of rodent systems, in which host survival time is a simple indicator of drug activity. In-vitro screens have used a variety of trypomastigote types (see Table 3, below). […] Most early in-vitro screens employed a short test in which bloodstream trypomastigotes were isolated from an infected rodent and maintained for up to 24 h in a simple drug-containing media. Two significant modifications of this technique include maintaining isolated bloodstream trypomastigotes in drug-containing media for 3-4 hours at 37° C in micro-titre plates and their subsequent viability assessed by the uptake of radiolabelled precursors or motility and infectivity to mice.
# as §1
# human mononuclear cells = experiment: Mixed leukocyte culture (MLC) reaction; format: cell-based
# Experimental: T and B lymphocytes from normal human donors were incubated for 30 minutes at various dose levels of the compounds indicated. The lymphocytes were added in triplicate wells in gentamicin and phytohemagglutinin (PHA) (a T cell mitogen), pokeweed mitogen (PWM) (a B cell mitogen) and allogeneic mononuclear cells (mixed leukocyte cultures; MLC) or media containing the above additives. The lymphocyte blastogenesis assay is described in detail below.
# Mixed leukocyte culture (MLC) reactions may be used to evaluate the ability of human mononuclear cells to recognize and immunologically react to human histocompatibility antigen (measurement of the ability of the cells to mount a primary immune response to an antigen). Cultures of one set of human mononuclear cells were reacted with mononuclear cells from an unrelated donor in lymphocyte blastogenesis assays and the proliferation of the first set of cells was quantitated. The results are presented in Charts la(e) (v) and la(e) (vi) (Figs. 5 and 6). Again, as with lymphocyte blastogenesis with mitogens, the MLC was run in replicates of three and a mean value obtained.
# • 1. Mononuclear cells are separated from whole blood by differential centrifugation using a synthetic separation medium, or are thawed from a cryopreserved preparation. The cells are washed and resuspended in media (RPMI - 1640, L-Glutamine 2mM, Herpes Buffer 25mM, Gentamicin 50 ug/ml, Human AB Serum-heat inactivated (56°, 30°) 20%). • 2. A viable cell count is determined. • 3. Cell concentration is adjusted to 2 x 10^6 /ml in media. • 4. The cell suspension is added to wells of a 96-well flat bottom plate in 0.1 ml aliquots (2 x 10^5 cells). • 5. The selected mitogens and/or antigens (in media without serum) are added to the cells in the wells also in 0.1 ml aliquots. • 6. The cultures are incubated for 3-7 days (depending upon the mitogen or antigen) at 37° C in a humidified 5% C02 atmosphere. • 7. […] The vials are counted in a liquid scintillation counter for one minute where the amount of incorporated ^3HTdR is determined.
# PBL = experiment: Growth of PBL following cocultivation of patient's lymphocytes with PHA-PBL; format: cell-based, human; details: 30 u.M or lower; up to 10 days in culture
# H9-HIV-1 cells = experiment: Cytotoxicity in persistently infected H9-HIV-1 cells, viable cell number; format: cell-based, human; details: 30 u.M and lower; up to 30 days
# CAEV = experiment: Experiment la(c): Himalayan Tahr ovary cells, CAEV, p28 radioimmunoassay; format: cell-based, caprine arthritis encephalitis virus (CAEV); details: as read from Figure 15
# Description: A procedure similar to that followed in Experiment la (a) was followed using Himalayan Tahr ovary cells exposed to caprine arthritis encephalitis virus (CAEV), a lentivirus related to HIV-1 which causes leukoen- cephalitis and arthritis in goats. A radioimmunoassay to detect CAEV p28 was used to determine the presence of the virus.
# [2] = Case study: AIDS patient with hairy leukoplakia, IPA oral fluid dose or mouth wash; format: in vivo, human
# Description: When the indication reappeared, following a period of time (several days), the administration of the compound gave further relief.
# Enterocytozoon bieneusi = experiment: Clinical evaluation of AIDS patients with chronic diarrhoea treated with IPA (stool examinations, endoscopic biopsies); format: in vivo; details: E. bieneusi identified prior to treatment
# Description: Chronic diarrhoea accompanied by wasting is one of the most frequent problems associated with HIV infection. […] A new genera and species of microspora, Enterocytozoon bieneusi, was identified in ultrastructural studies of intestinal biopsies from AIDS patients with unexplained chronic diarrhoea prior to treatment with IPA.
# E. bieneusi microsporidiosis (intestinal microsporidiosis) is diagnosed with increasing frequency in AIDS patients with chronic diarrhoea of unknown origin. Forty-seven cases have been reported in the United States, Africa and Europe. […] Until now, diagnosis depended upon light and electron microscopy studies of small bowel biopsies, particularly of the jejunum. Diagnosis is suspected on histological findings either on Giemsa-stained smears and/or hematoxylin-eosin or Giemsa-stained paraffin sections: identification of oval parasites measuring 2-9 u.m and clusters of refractile spores (1-1.5 u.m) in villous enterocytes from just above the mouth of the crypts to the tips of the villi. These organisms are located in the supranuclear position of the cytoplasm. […] Recently reported recovery of spores from faeces, would simplify diagnosis. Unlike other species of microspora, E. bieneusi has not been identified from different organs such as brain and kidney. A proportion of transient diarrhoeas of unknown etiology in AIDS patients may be related to E. bieneusi. […]
# [3] = Solubility of IPA in water; format: physicochemical
compound,measurement,setting,value
"CC(C)=CCNc1ncnc2c1ncn2[C@@H]1O[C@H](CO)[C@@H](O)[C@H]1O [IPA, N^6-(Δ^2-isopentenyl) adenosine]","Activity, mouse/ hamster models",L donovani,+
same,"Activity, mouse/ hamster models",L major/L mexicana,-
same,"activity, mouse model",T. cruzi; T. cruzi strain Sonya,+
same,"activity, mouse model",T. cruzi; T. cruzi strain Y,++
same,"activity, mouse model",[1],+ +
same,reduction in MLC reactivity,human mononuclear cells; 1 µM,50%
same,MLC reactivity,human mononuclear cells; 10 µM,No effect
same,MLC reactivity,human mononuclear cells; 100 u.M,slight increase
same,cytotoxic effect on the growth of viable PHA stimulated PBL,PBL,did not have any significant cytotoxic effect
same,"cytotoxicity, viable cell number",H9-HIV-1 cells,No cytotoxicity
same,IC50,CAEV,8 µM
same,IC90,CAEV,30 µM
same,relief of hairy leukoplakia,[2],complete relief
same,time to relief of the indication,[2],within seven days
same,pathogen found on clinical evaluation,Enterocytozoon bieneusi,fails to identify any pathogen
same,solubility in water,[3],does not readily dissolve in water

# Reference: patent publication EP0462621A2, “Use of particular compounds for manufacture of pharmaceutical formulations for treatment against various parasites, mycoplasmas, other indications and other infections” (Prendergast, Patrick Thomas, priority 1990, dated 1991)
